{
  "source": "paper PMC5862592",
  "about": "“CDK8/19 inhibition induces premature G1/S transition and ATR-dependent cell death in prostate cancer cells” (Oncotarget, 2018)",
  "experiment_in_all_cases": "biochemical",
  "set-up_in_all_cases": "KINOMEscan active site-directed competition binding assay (DiscoveRx), 456 kinases, per cent of control at 300 nM",
  "details_in_all_cases": "read-out: Percent of Control (%)",
  "key": {"[1]": {"target": "T1, ABL1(Q252H)-nonphosphorylated (Homo sapiens, UniProt P00519, Q252H)", "T1 construct": "nonphosphorylated", "description": "(§1) Kinase selectivity of T-474 and T-418 was evaluated at 300 nmol/L using a panel of 456 kinases at DiscoveRx (KINOMEscan). The platform employs an active site-directed competition binding assay to quantitatively measure interactions between test compounds and kinases. […] In VCaP prostate cancer cells, treatment with T-474 or T-418 suppressed the phosphorylation of the known CDK8 substrate STAT1 at Ser727 both in the absence and in the presence of IFN-γ (Figure 1B), which stimulates CDK8-mediated STAT1 phosphorylation."}, "ACVR1": {"target": "ACVR1 (Homo sapiens, UniProt Q04771)", "description": "as §1"}, "CDK7": {"target": "CDK7 (Homo sapiens, UniProt P50613)", "description": "as §1"}, "CHEK2": {"target": "CHEK2 (Homo sapiens, UniProt O96017)", "sequence (O96017 whole entry)": "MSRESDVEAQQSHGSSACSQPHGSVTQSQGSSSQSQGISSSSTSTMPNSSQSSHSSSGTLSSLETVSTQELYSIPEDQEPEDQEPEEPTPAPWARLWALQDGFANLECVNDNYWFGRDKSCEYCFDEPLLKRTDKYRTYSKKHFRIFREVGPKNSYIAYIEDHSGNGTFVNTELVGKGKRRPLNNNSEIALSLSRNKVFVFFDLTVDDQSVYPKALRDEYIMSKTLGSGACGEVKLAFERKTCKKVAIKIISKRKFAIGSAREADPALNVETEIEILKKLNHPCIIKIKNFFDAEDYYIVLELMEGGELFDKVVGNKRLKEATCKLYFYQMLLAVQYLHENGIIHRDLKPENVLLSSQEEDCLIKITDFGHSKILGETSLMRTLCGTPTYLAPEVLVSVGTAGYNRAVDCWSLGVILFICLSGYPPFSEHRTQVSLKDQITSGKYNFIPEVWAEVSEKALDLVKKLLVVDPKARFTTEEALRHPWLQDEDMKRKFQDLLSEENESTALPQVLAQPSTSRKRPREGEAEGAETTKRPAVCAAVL", "description": "as §1"}, "EGFR(G719S)": {"target": "EGFR(G719S) (Homo sapiens, UniProt P00533, G719S)", "description": "as §1"}, "ERBB3": {"target": "ERBB3 (Homo sapiens, UniProt P21860)", "description": "as §1"}, "FLT3(K663Q)": {"target": "FLT3(K663Q) (Homo sapiens, UniProt P36888, K663Q)", "description": "as §1"}, "FLT3(N841I)": {"target": "FLT3(N841I) (Homo sapiens, UniProt P36888, N841I)", "description": "as §1"}, "HUNK": {"target": "HUNK (Homo sapiens, UniProt P57058)", "sequence (P57058 whole entry)": "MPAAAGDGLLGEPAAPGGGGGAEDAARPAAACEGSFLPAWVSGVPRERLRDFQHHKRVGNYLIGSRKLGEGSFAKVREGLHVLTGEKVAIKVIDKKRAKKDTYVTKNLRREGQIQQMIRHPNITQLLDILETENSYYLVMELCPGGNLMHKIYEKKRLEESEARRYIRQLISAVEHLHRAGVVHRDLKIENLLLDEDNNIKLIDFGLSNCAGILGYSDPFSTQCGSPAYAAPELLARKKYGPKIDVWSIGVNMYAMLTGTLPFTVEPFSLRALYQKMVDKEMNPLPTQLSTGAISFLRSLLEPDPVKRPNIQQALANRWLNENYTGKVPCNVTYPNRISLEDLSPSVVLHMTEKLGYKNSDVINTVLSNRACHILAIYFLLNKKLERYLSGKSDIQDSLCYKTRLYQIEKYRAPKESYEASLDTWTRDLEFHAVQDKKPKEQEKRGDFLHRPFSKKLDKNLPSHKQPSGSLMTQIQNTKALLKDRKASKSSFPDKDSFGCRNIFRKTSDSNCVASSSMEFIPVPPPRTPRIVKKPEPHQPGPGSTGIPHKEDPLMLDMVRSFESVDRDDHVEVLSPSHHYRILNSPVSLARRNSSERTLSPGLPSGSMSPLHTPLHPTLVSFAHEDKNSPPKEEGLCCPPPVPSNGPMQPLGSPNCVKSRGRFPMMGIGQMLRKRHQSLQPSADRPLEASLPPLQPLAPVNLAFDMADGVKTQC", "description": "as §1"}, "INSRR": {"target": "INSRR (Homo sapiens, UniProt P14616)", "sequence (P14616 whole entry)": "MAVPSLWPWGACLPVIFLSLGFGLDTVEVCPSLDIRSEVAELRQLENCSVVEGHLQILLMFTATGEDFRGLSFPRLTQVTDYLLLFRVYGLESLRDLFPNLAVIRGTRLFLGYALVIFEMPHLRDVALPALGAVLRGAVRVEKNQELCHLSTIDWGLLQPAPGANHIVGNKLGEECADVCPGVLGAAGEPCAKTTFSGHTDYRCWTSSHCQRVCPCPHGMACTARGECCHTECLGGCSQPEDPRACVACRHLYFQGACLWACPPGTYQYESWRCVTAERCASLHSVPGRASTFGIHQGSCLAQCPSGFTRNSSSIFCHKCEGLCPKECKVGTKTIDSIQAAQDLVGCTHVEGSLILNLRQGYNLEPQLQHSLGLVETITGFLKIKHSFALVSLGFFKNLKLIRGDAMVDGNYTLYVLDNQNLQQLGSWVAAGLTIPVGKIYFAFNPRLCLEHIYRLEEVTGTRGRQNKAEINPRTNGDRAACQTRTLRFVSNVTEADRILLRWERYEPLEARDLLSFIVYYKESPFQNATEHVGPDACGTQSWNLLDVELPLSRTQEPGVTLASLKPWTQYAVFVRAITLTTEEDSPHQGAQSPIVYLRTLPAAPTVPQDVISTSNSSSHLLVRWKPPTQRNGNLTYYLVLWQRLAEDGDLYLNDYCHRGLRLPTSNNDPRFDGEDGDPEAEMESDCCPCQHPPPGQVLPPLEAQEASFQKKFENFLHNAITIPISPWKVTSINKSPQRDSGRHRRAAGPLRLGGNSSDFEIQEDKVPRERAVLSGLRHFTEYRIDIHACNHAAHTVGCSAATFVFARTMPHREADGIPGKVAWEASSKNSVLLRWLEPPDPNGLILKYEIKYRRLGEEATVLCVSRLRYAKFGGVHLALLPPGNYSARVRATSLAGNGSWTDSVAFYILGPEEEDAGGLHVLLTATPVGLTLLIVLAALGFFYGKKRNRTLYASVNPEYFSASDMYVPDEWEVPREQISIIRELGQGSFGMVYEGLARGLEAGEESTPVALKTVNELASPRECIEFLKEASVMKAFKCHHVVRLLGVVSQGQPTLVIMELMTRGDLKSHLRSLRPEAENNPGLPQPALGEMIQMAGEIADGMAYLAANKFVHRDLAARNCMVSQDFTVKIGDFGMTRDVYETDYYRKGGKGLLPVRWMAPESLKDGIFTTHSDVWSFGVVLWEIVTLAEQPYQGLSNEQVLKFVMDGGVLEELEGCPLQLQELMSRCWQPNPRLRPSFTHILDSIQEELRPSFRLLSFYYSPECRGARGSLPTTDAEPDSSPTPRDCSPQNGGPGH", "description": "as §1"}, "IRAK3": {"target": "IRAK3 (Homo sapiens, UniProt Q9Y616)", "description": "as §1"}, "LRRK2": {"target": "LRRK2 (Homo sapiens, UniProt Q5S007)", "sequence (Q5S007 whole entry)": "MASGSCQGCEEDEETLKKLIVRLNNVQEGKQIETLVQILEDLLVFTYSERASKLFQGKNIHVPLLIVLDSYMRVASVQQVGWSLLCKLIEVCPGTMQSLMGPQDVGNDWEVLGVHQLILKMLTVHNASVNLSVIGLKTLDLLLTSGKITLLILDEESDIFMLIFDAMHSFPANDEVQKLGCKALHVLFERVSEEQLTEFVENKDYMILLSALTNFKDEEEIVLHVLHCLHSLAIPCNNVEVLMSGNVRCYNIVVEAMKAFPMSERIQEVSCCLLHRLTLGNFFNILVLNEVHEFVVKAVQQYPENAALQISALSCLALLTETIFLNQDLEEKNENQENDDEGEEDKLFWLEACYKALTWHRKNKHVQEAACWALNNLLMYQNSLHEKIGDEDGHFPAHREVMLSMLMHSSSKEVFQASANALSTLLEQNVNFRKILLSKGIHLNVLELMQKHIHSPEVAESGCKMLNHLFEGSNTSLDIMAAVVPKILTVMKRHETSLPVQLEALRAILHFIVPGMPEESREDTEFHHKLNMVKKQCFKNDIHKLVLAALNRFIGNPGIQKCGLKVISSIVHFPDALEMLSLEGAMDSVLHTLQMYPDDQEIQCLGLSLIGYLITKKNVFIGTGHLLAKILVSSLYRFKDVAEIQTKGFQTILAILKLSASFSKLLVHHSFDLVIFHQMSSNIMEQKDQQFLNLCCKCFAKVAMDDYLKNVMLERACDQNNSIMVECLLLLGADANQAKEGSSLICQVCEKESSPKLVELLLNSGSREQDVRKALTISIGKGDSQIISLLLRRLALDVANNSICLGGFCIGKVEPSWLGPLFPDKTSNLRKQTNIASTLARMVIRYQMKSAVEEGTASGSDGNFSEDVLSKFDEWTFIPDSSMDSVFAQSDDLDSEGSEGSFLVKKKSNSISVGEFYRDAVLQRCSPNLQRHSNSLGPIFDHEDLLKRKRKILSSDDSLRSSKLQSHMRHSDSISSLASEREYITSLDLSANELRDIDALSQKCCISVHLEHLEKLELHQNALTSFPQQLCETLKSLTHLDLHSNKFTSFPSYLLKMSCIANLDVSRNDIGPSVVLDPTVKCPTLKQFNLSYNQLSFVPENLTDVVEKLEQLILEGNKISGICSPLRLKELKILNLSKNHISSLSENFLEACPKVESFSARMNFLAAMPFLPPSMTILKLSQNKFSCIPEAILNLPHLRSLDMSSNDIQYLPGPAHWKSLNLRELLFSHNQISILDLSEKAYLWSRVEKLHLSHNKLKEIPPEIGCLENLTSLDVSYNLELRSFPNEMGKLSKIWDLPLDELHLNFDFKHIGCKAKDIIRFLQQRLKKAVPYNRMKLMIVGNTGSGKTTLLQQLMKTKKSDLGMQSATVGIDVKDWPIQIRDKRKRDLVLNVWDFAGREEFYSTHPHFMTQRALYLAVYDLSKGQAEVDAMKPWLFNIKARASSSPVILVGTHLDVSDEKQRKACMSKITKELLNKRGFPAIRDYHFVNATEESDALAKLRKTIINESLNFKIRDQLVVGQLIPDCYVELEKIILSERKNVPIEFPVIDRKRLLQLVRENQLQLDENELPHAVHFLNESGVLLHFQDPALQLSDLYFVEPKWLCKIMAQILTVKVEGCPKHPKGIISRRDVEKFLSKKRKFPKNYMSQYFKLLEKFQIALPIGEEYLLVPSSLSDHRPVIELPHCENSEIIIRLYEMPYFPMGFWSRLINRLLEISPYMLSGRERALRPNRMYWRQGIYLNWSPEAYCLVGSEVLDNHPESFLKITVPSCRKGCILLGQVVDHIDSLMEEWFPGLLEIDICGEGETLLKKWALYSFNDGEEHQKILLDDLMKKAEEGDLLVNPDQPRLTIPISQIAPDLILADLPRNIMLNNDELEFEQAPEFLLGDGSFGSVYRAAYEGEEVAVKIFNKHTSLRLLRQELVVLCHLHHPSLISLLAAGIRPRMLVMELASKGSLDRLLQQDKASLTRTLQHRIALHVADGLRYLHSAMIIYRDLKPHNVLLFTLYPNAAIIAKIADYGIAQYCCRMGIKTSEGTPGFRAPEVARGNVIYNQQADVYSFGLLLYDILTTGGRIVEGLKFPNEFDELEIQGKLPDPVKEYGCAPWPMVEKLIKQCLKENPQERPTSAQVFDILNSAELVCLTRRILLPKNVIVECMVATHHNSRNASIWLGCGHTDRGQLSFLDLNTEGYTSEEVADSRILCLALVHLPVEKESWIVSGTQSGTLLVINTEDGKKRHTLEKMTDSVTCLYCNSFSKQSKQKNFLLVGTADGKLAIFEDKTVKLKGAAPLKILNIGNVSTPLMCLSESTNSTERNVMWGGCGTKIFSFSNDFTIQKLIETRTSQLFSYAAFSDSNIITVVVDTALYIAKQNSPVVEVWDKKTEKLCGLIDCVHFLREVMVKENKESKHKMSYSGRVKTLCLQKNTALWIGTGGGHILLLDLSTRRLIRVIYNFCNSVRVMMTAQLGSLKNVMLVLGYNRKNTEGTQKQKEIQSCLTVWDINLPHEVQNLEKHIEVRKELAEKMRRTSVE", "description": "as §1"}, "MTOR": {"target": "MTOR (Homo sapiens, UniProt P42345)", "description": "as §1"}, "PIK3CA(E545K)": {"target": "PIK3CA(E545K) (Homo sapiens, UniProt P42336, E545K)", "description": "as §1"}, "PLK1": {"target": "PLK1 (Homo sapiens, UniProt P53350)", "description": "as §1"}, "[2]": {"target": "T2, RPS6KA4(Kin.Dom.1-N-terminal) (Homo sapiens, UniProt O75676)", "T2 construct": "Kin.Dom.1-N-terminal", "description": "as §1"}, "[3]": {"target": "T3, RSK3(Kin.Dom.1-N-terminal) (Homo sapiens, UniProt Q15349)", "T3 construct": "gene RPS6KA2; Kin.Dom.1-N-terminal", "description": "as §1"}, "[4]": {"target": "T4, RSK3(Kin.Dom.2-C-terminal) (Homo sapiens, UniProt Q15349)", "T4 construct": "gene RPS6KA2; Kin.Dom.2-C-terminal", "description": "as §1"}, "SLK": {"target": "SLK (Homo sapiens, UniProt Q9H2G2)", "description": "as §1"}, "p38-alpha": {"target": "T5, p38-alpha (Homo sapiens, UniProt Q16539)", "T5 construct": "gene MAPK14", "description": "as §1"}, "p38-beta": {"target": "T6, p38-beta (Homo sapiens, UniProt Q15759)", "T6 construct": "gene MAPK11", "description": "as §1"}},
  "note": "Like-named read-outs stand apart in the source and are kept apart here.",
  "data": [
    {"smiles": "O=C(/C=C/c1cnccc1-c1ccc(F)cc1)Nc1ccc(CCc2nnco2)cc1", "note": "[T-418, (2E)-3-(4-(4-fluorophenyl)pyridin-3-yl)-N-(4-(2-(1,3,4-oxadiazol-2-yl)ethyl)phenyl)acrylamide]", "values": [
      {"measurement": "remaining binding at 0.3 µM", "setting": "[1]; sheet T-418", "result": 83, "unit": "%"},
      {"measurement": "remaining binding at 0.3 µM", "setting": "ACVR1; sheet T-418", "result": 100, "unit": "%"},
      {"measurement": "remaining binding at 0.3 µM", "setting": "CDK7; sheet T-418", "result": 100, "unit": "%"},
      {"measurement": "remaining binding at 0.3 µM", "setting": "CHEK2; sheet T-418", "result": 89, "unit": "%"},
      {"measurement": "remaining binding at 0.3 µM", "setting": "EGFR(G719S); sheet T-418", "result": 68, "unit": "%"},
      {"measurement": "remaining binding at 0.3 µM", "setting": "ERBB3; sheet T-418", "result": 76, "unit": "%"},
      {"measurement": "remaining binding at 0.3 µM", "setting": "FLT3(K663Q); sheet T-418", "result": 100, "unit": "%"},
      {"measurement": "remaining binding at 0.3 µM", "setting": "FLT3(N841I); sheet T-418", "result": 79, "unit": "%"},
      {"measurement": "remaining binding at 0.3 µM", "setting": "HUNK; sheet T-418", "result": 100, "unit": "%"},
      {"measurement": "remaining binding at 0.3 µM", "setting": "INSRR; sheet T-418", "result": 100, "unit": "%"},
      {"measurement": "remaining binding at 0.3 µM", "setting": "IRAK3; sheet T-418", "result": 100, "unit": "%"},
      {"measurement": "remaining binding at 0.3 µM", "setting": "LRRK2; sheet T-418", "result": 94, "unit": "%"},
      {"measurement": "remaining binding at 0.3 µM", "setting": "MTOR; sheet T-418", "result": 100, "unit": "%"},
      {"measurement": "remaining binding at 0.3 µM", "setting": "PIK3CA(E545K); sheet T-418", "result": 82, "unit": "%"},
      {"measurement": "remaining binding at 0.3 µM", "setting": "PLK1; sheet T-418", "result": 100, "unit": "%"},
      {"measurement": "remaining binding at 0.3 µM", "setting": "[2]; sheet T-418", "result": 90, "unit": "%"},
      {"measurement": "remaining binding at 0.3 µM", "setting": "[3]; sheet T-418", "result": 79, "unit": "%"},
      {"measurement": "remaining binding at 0.3 µM", "setting": "[4]; sheet T-418", "result": 100, "unit": "%"},
      {"measurement": "remaining binding at 0.3 µM", "setting": "SLK; sheet T-418", "result": 100, "unit": "%"},
      {"measurement": "remaining binding at 0.3 µM", "setting": "p38-alpha; sheet T-418", "result": 100, "unit": "%"},
      {"measurement": "remaining binding at 0.3 µM", "setting": "p38-beta; sheet T-418", "result": 77, "unit": "%"}
    ]},
    {"smiles": "Cc1ncccc1Oc1sc(C(N)=O)c2c1-c1c(cnn1C)CC2", "note": "[T-474, 1-methyl-8-((2-methylpyridin-3-yl)oxy)-4,5-dihydro-1H-thieno[3,4-g]indazole-6-carboxamide]", "values": [
      {"measurement": "remaining binding at 0.3 µM", "setting": "[1]", "result": 100, "unit": "%"},
      {"measurement": "remaining binding at 0.3 µM", "setting": "ACVR1", "result": 100, "unit": "%"},
      {"measurement": "remaining binding at 0.3 µM", "setting": "CDK7", "result": 100, "unit": "%"},
      {"measurement": "remaining binding at 0.3 µM", "setting": "CHEK2", "result": 100, "unit": "%"},
      {"measurement": "remaining binding at 0.3 µM", "setting": "EGFR(G719S)", "result": 92, "unit": "%"},
      {"measurement": "remaining binding at 0.3 µM", "setting": "ERBB3", "result": 78, "unit": "%"},
      {"measurement": "remaining binding at 0.3 µM", "setting": "FLT3(K663Q)", "result": 100, "unit": "%"},
      {"measurement": "remaining binding at 0.3 µM", "setting": "FLT3(N841I)", "result": 97, "unit": "%"},
      {"measurement": "remaining binding at 0.3 µM", "setting": "HUNK", "result": 100, "unit": "%"},
      {"measurement": "remaining binding at 0.3 µM", "setting": "INSRR", "result": 100, "unit": "%"},
      {"measurement": "remaining binding at 0.3 µM", "setting": "IRAK3", "result": 96, "unit": "%"},
      {"measurement": "remaining binding at 0.3 µM", "setting": "LRRK2", "result": 95, "unit": "%"},
      {"measurement": "remaining binding at 0.3 µM", "setting": "MTOR", "result": 82, "unit": "%"},
      {"measurement": "remaining binding at 0.3 µM", "setting": "PIK3CA(E545K)", "result": 100, "unit": "%"},
      {"measurement": "remaining binding at 0.3 µM", "setting": "PLK1", "result": 100, "unit": "%"},
      {"measurement": "remaining binding at 0.3 µM", "setting": "[2]", "result": 100, "unit": "%"},
      {"measurement": "remaining binding at 0.3 µM", "setting": "[3]", "result": 100, "unit": "%"},
      {"measurement": "remaining binding at 0.3 µM", "setting": "[4]", "result": 100, "unit": "%"},
      {"measurement": "remaining binding at 0.3 µM", "setting": "SLK", "result": 100, "unit": "%"},
      {"measurement": "remaining binding at 0.3 µM", "setting": "p38-alpha", "result": 99, "unit": "%"},
      {"measurement": "remaining binding at 0.3 µM", "setting": "p38-beta", "result": 64, "unit": "%"}
    ]}
  ]
}
